From patent publication US20070093520A1, “Method of treatment of diarrhea-predominant irritable bowel syndrome in a subject” (priority 2005, published 2007)

Test system: diarrhea-predominant IBS subjects
Experiment: 3007 Study: open-label 52-week safety study, adverse events and withdrawals
Conditions: Study 3007

## Cc1nccn1C[C@H]1CCc2c(c3cccc4c3n2CCC4)C1=O [cilansetron, (R)-(−)-4,5,6,8,9,10-hexahydro-10-[(2-methyl-1H-imidazol-1-yl)methyl]-11H-pyrido-[3,2,1-jk]-carbazol-11-one]
P/C
  SAE: Hepatobiliary Disorders: 0 n (%)
  SAE: Immune System Disorders: 1 (<1%) n (%)
  SAE: Infections and Infestations: 2 (<1%) n (%)
  SAE: Injury, Poisoning and Procedural Complications: 0 n (%)
  SAE: Irritable Bowel Syndrome Aggravated: 0 n (%)
  SAE: Leiomyoma NOS: 0 n (%)
  SAE: Loss of Consciousness: 0 n (%)
  SAE: Myocardial Infarction: 0 n (%)
  SAE: Neoplasms Benign, Malignant and Unspecified (Incl Cysts and Polyps): 3 (1%) n (%)
  SAE: Nervous System Disorders: 0 n (%)
  SAE: Non-Accidental Overdose: 0 n (%)
  SAE: Ovarian Cancer NOS*: 0 n (%)
  SAE: Ovarian Cystadenofibroma*: 1 (<1%) n (%)
  SAE: Pregnancy NOS*: 0 n (%)
  SAE: Pregnancy, Puerperium and Perinatal Conditions: 0 n (%)
  SAE: Psychiatric Disorders: 1 (<1%) n (%)
  SAE: Psychotic Disorder NOS: 1 (<1%) n (%)
  SAE: Renal and Urinary Disorders: 1 (<1%) n (%)
  SAE: Reproductive System and Breast Disorders: 0 n (%)
  SAE: Respiratory, Thoracic and Mediastinal Disorders: 1 (<1%) n (%)
  SAE: Sinusitis Acute NOS: 1 (<1%) n (%)
  SAE: Status Epilepticus: 0 n (%)
  SAE: Suicidal Ideation: 1 (<1%) n (%)
  SAE: Supraventricular Tachycardia: 1 (<1%) n (%)
  SAE: Urinary Tract Infection NOS: 1 (<1%) n (%)
  SAE: Uterine Polyp NOS*: 0 n (%)
  SAE: Vaginal Cyst*: 0 n (%)
  TEAEs that led to permanent discontinuation of study medication: 18%
  Total Number of Subjects with at Least One Serious Adverse Event: 10 (4%) n (%)
  subjects with at least one TEAE: 78%
  subjects with at least one treatment-emergent SAE: 4%
  withdrawal for AE: 17%
  withdrawal for lack of efficacy: 21%
P/C (N = 279)
  Number of deaths: 0 n (%)
  Number of subjects who permanently discontinued study medication due to a TEAE (as reported on the AE CRF): 50 (18) n (%)
  Number of subjects with at least one AE of special interest: 185 (66) n (%)
  Number of subjects with at least one SAE: 10 (4) n (%)
  Number of subjects with at least one TEAE: 217 (78) n (%)
  Number of subjects with at least one TEAE leading to dose reduction: 4 (1) n (%)
  Number of subjects with at least one related TEAE: 150 (54) n (%)
  Number of subjects with at least one severe TEAE: 44 (16) n (%)
P/C, all enrolled
  Number of subjects who died: 0 n (%)
  Primary reason for withdrawal: Adverse event and lack of efficacy: 34 (12) n (%)
  Primary reason for withdrawal: Baseline complaint/adverse event: 14 (5) n (%)
  Primary reason for withdrawal: Lack of efficacy: 25 (9) n (%)
Female subjects
  TEAE incidence: blood CK increased: 1%
  TEAE incidence: constipation: 28%
  TEAE incidence: diarrhea excluding infective: 9%
  TEAE incidence: nausea and vomiting symptoms: 8%
  TEAE incidence: sinusitis NOS: 9%
  TEAE incidence: urinary tract infections: 8%
Fifth (>12 months) interval
  prevalence of constipation overall: 3%
First three-month interval
  prevalence of TEAEs overall: 62%
  prevalence of constipation overall: 17%
  subjects discontinued due to AEs: 7%
Fourth three-month interval
  prevalence of TEAEs overall: 54%
  prevalence of constipation overall: 2%
  subjects discontinued due to AEs: 2%
Last (>12 months) interval
  prevalence of TEAEs overall: 70%
Male subjects
  TEAE incidence: blood CK increased: 12%
  TEAE incidence: constipation: 15%
  TEAE incidence: diarrhea excluding infective: 3%
  TEAE incidence: nausea and vomiting symptoms: 3%
  TEAE incidence: sinusitis NOS: 3%
  TEAE incidence: urinary tract infections: 1%
Of 29 subjects with SAEs
  subjects who discontinued due to the SAEs: Eleven
Of the 128 subjects with constipation
  subjects with at least one constipation episode reported as related to study medication: 124 subjects
overall
  SAE: Abdominal Pain Upper: 1 (<1%) n (%)
  SAE: Adenomyosis*: 1 (<1%) n (%)
  SAE: Angina Pectoris: 2 (<1%) n (%)
  SAE: Appendicitis: 1 (<1%) n (%)
  SAE: Asthma NOS: 1 (<1%) n (%)
  SAE: Benign Ovarian Tumour*: 1 (<1%) n (%)
  SAE: Bladder Prolapse: 1 (<1%) n (%)
  SAE: Bone Neoplasm Malignant: 1 (<1%) n (%)
  SAE: Breast Cancer NOS*: 2 (<1%) n (%)
  SAE: Bronchopneumonia NOS: 1 (<1%) n (%)
  SAE: Calculus Ureteric: 1 (<1%) n (%)
  SAE: Cardiac Disorders: 4 (<1%) n (%)
  SAE: Chest Pain: 2 (<1%) n (%)
  SAE: Cholelithiasis: 1 (<1%) n (%)
  SAE: Colitis Ischaemic: 1 (<1%) n (%)
  SAE: Depression: 1 (<1%) n (%)
  SAE: Endometriosis*: 1 (<1%) n (%)
  SAE: Fibroma NOS: 1 (<1%) n (%)
  SAE: Food Allergy: 1 (<1%) n (%)
  SAE: Gastritis NOS: 1 (<1%) n (%)
  SAE: Gastroenteritis NOS: 1 (<1%) n (%)
  SAE: Gastrointestinal Disorders: 4 (<1%) n (%)
  SAE: General Disorders and Administration Site Conditions: 2 (<1%) n (%)
  SAE: Hallucination NOS: 1 (<1%) n (%)
  SAE: Hallucination, Auditory: 1 (<1%) n (%)
  SAE: Heat Exhaustion: 1 (<1%) n (%)
  SAE: Hepatitis NOS: 1 (<1%) n (%)
  SAE: Hepatobiliary Disorders: 2 (<1%) n (%)
  SAE: Immune System Disorders: 1 (<1%) n (%)
  SAE: Infections and Infestations: 3 (<1%) n (%)
  SAE: Injury, Poisoning and Procedural Complications: 2 (<1%) n (%)
  SAE: Irritable Bowel Syndrome Aggravated: 1 (<1%) n (%)
  SAE: Leiomyoma NOS: 1 (<1%) n (%)
  SAE: Loss of Consciousness: 2 (<1%) n (%)
  SAE: Myocardial Infarction: 1 (<1%) n (%)
  SAE: Neoplasms Benign, Malignant and Unspecified (Incl Cysts and Polyps): 6 (1%) n (%)
  SAE: Nervous System Disorders: 2 (<1%) n (%)
  SAE: Non-Accidental Overdose: 1 (<1%) n (%)
  SAE: Ovarian Cancer NOS*: 1 (<1%) n (%)
  SAE: Ovarian Cystadenofibroma*: 1 (<1%) n (%)
  SAE: Pregnancy NOS*: 1 (<1%) n (%)
  SAE: Pregnancy, Puerperium and Perinatal Conditions: 1 (<1%) n (%)
  SAE: Psychiatric Disorders: 1 (<1%) n (%)
  SAE: Psychotic Disorder NOS: 1 (<1%) n (%)
  SAE: Renal and Urinary Disorders: 2 (<1%) n (%)
  SAE: Reproductive System and Breast Disorders: 2 (<1%) n (%)
  SAE: Respiratory, Thoracic and Mediastinal Disorders: 1 (<1%) n (%)
  SAE: Sinusitis Acute NOS: 1 (<1%) n (%)
  SAE: Status Epilepticus: 1 (<1%) n (%)
  SAE: Suicidal Ideation: 1 (<1%) n (%)
  SAE: Supraventricular Tachycardia: 1 (<1%) n (%)
  SAE: Urinary Tract Infection NOS: 1 (<1%) n (%)
  SAE: Uterine Polyp NOS*: 1 (<1%) n (%)
  SAE: Vaginal Cyst*: 1 (<1%) n (%)
  TEAE incidence: GI disorders: 50%
  TEAE incidence: Infections and infestations: 32%
  TEAE incidence: Investigations: 24%
  TEAE incidence: Musculoskeletal and connective tissue disorders: 16%
  TEAE incidence: Nervous system disorders: 12%
  TEAE incidence: abdominal pain NOS: 7%
  TEAE incidence: back pain: 3%
  TEAE incidence: blood CK increased: 5%
  TEAE incidence: constipation: 24%
  TEAE incidence: diarrhea NOS: 6%
  TEAE incidence: fecal occult blood positive: 6%
  TEAE incidence: flatulence: 5%
  TEAE incidence: headache NOS: 6%
  TEAE incidence: nasopharyngitis: 5%
  TEAE incidence: nausea: 5%
  TEAE incidence: sinusitis NOS: 7%
  TEAE incidence: upper respiratory tract infection NOS: 5%
  TEAE incidence: urinary tract infection NOS: 5%
  TEAEs that led to dose reduction: 2%
  TEAEs that led to permanent discontinuation: GI disorders: 12%
  TEAEs that led to permanent discontinuation: abdominal pain NOS: 2%
  TEAEs that led to permanent discontinuation: diarrhea NOS: 1%
  TEAEs that led to permanent discontinuation: flatulence: 1%
  Total Number of Subjects with at Least One Serious Adverse Event: 29 (5%) n (%)
  discontinued study medication due to constipation: 5%
  dose reduction due to constipation: 1%
  overall incidence of TEAEs possibly, probably, or unlikely related to study medication: 56%
  related TEAE: abdominal pain NOS: 6%
  related TEAE: blood CK increased: 3%
  related TEAE: constipation: 23%
  related TEAE: diarrhea NOS: 3%
  related TEAE: fecal occult blood positive: 3%
  related TEAE: flatulence: 4%
  related TEAE: headache NOS: 4%
  related TEAE: nausea: 3%
  severe TEAE: abdominal pain NOS: 2%
  severe TEAE: constipation: 3%
  severe TEAE: headache NOS: 1%
  special interest TEAEs: 69%
  subjects with at least one TEAE: 82%
  subjects with severe TEAEs: 18%
  withdrawal for AE (combined categories): 15%
  withdrawal for lack of efficacy (combined categories): 18%
Second three-month interval
  prevalence of TEAEs overall: 55%
  prevalence of constipation overall: 9%
  subjects discontinued due to AEs: 6%
Third three-month interval
  prevalence of TEAEs overall: 54%
  prevalence of constipation overall: 5%
  subjects discontinued due to AEs: 2%
